Laboratory results taken from the Deep4Chem optical property database.

Assay: solvent given as SMILES

SMILES: C(=C\c1ccnc2ccccc12)/c1c2ccccc2cc2ccccc12
- absorption maximum (in CC1CCCCC1): 387 nm
- absorption maximum (in CC#N): 387 nm

SMILES: c1ccc(C2=C3c4ccccc4C4=[N+]3[B-]3(Oc5ccccc54)Oc4ccccc4-c4c5ccccc5c2n43)cc1 (stereo not drawn)
- absorption maximum (in ClCCl): 711 nm

SMILES: CCN(C(C)=O)c1cc2c(cc1C)C(c1ccccc1C(=O)O)=C1CCCC(/C=C/C3=[N+](C)c4ccccc4C3(C)C)=C1O2
- absorption maximum (in CCO): 656 nm

SMILES: Cc1ccc(-c2ccc(/C=C/c3ccc(Br)n3C)cn2)nc1
- absorption maximum (in CC#N): 373 nm

SMILES: CCCCn1c(=O)c2cc3ccc4cccc5ccc(c2c1=O)c3c45
- absorption maximum (in ClC(Cl)Cl): 427 nm

SMILES: COc1cc(OC)c2c(c1)c1cc3oc(=O)cc(C)c3cc1c1cc(OC)cc(OC)c12
- absorption maximum (in ClC(Cl)Cl): 390 nm

SMILES: COc1cc(OC)c2cc(C#N)c(=N)oc2c1
- absorption maximum (in ClCCl): 372 nm

SMILES: CCOC(=O)C1=CN(c2ccccc2)C=CC1c1ccccc1 (stereo not drawn)
- absorption maximum (in C1CCOC1): 344 nm
- absorption maximum (in CO): 348 nm

SMILES: N#CC(C#N)=C(/C=C/c1cn(-c2ccccc2)nc1-c1ccccc1)c1ccccc1
- absorption maximum (in C1CCOC1): 402 nm
- absorption maximum (in C1COCCO1): 399 nm
- absorption maximum (in CCO): 402 nm
- absorption maximum (in CCOC(C)=O): 399 nm
- absorption maximum (in CN(C)C=O): 405 nm
- absorption maximum (in CO): 397 nm
- absorption maximum (in CS(C)=O): 409 nm
- absorption maximum (in Cc1ccccc1): 405 nm
- absorption maximum (in ClC(Cl)Cl): 406 nm
- absorption maximum (in ClCCl): 403 nm

SMILES: N#Cc1cccc(-c2pc3ccccc3s2)c1 (stereo not drawn)
- absorption maximum (in CC#N): 324 nm

SMILES: COc1ccc(-c2cc3c(ccc(=O)n3C)s2)cc1
- absorption maximum (in CC#N): 376 nm
- absorption maximum (in ClCCl): 378 nm

SMILES: N#Cc1c(N2CCCCC2)cc(-c2ccc3ccc4cccc5ccc2c3c45)c2c1C(=O)c1ccccc1-2
- absorption maximum (in C1CCOC1): 344 nm

SMILES: C(=C\c1ccccn1)/c1ccc(N(c2ccc(/C=C/c3ccccn3)cc2)c2ccc(-c3nc4ccccc4nc3-c3ccc(N(c4ccc(/C=C/c5ccccn5)cc4)c4ccc(/C=C/c5ccccn5)cc4)cc3)cc2)cc1
- absorption maximum (in C1CCOC1): 383 nm
- absorption maximum (in Cc1ccccc1): 378 nm

SMILES: c1ccc(-p2c(-c3cccs3)cc3ccccc32)cc1 (stereo not drawn)
- absorption maximum (in C1CCOC1): 350 nm

SMILES: CCNc1cc2c(cc1C)C(c1ccccc1C(=O)O)=C1CCCC(/C=C/C3=[N+](C)c4ccccc4C3(C)C)=C1O2
- absorption maximum (in CC#N): 696 nm
- absorption maximum (in CCO): 688 nm
- absorption maximum (in CO): 690 nm
- absorption maximum (in ClC(Cl)Cl): 702 nm

SMILES: N#Cc1cc(C#N)c(-c2cc(-n3c4ccccc4c4ccccc43)cc(-n3c4ccccc4c4ccccc43)c2)cc1-c1ccc(N(c2ccccc2)c2ccccc2)cc1
- absorption maximum (in Cc1ccccc1): 405 nm

SMILES: CCOC(=O)c1c2c3c(ccc(OC)c3c3cc4ccccc4cc13)N(C)C2=O
- absorption maximum (in CC#N): 406 nm

SMILES: c1ccncc1
- absorption maximum (in CC1CCCCC1): 252 nm
- absorption maximum (in ClC(Cl)Cl): 253 nm
- absorption maximum (in O): 253 nm

SMILES: COc1ccc(/C=C/C2=NC(=C\c3ccncc3)/C(=O)N2C)cc1
- absorption maximum (in C1COCCO1): 422 nm
- absorption maximum (in CC#N): 428 nm
- absorption maximum (in CCO): 433 nm
- absorption maximum (in CCOC(C)=O): 423 nm
- absorption maximum (in O): 425 nm

SMILES: CCCCCCN1C(=O)c2cccc3c(-c4ccc(-c5cc(-c6ccccc6)n(-c6ccccc6)n5)s4)ccc(c23)C1=O
- absorption maximum (in ClCCl): 400 nm

SMILES: C[Si](C)(C)[Si](C)(C)c1ccc2cc3ccccc3cc2c1
- absorption maximum (in C1CCCCC1): 382.68 nm

SMILES: CCCC1=Cc2nc1ccc1[nH]c(cc1CCC)c1nc(c(NC(C)=O)cc3[nH]c2cc3CCC)C(CCC)=C1
- absorption maximum (in Cc1ccccc1): 639 nm

SMILES: CCCC1=Cc2nc1ccc1[nH]c(cc1CCO)c1nc(ccc3[nH]c2cc3CCC)C(CCC)=C1
- absorption maximum (in Cc1ccccc1): 637 nm

SMILES: COc1ccc(-c2ccc3c(c2)[Si](C)(C)c2cc(-c4ccc(OC)cc4)ccc2C=C3)cc1
- absorption maximum (in ClCCl): 385 nm

SMILES: CC(C)(C)c1cc(-c2c3cc(c(-c4cc(C(C)(C)C)cc(C(C)(C)C)c4)c4ccc([nH]4)c(-c4ccc(Br)cc4)c4nc(c(-c5ccc(Br)cc5)c5ccc2[nH]5)C=C4)N=C3)cc(C(C)(C)C)c1
- absorption maximum (in ClCCl): 726 nm

SMILES: CCN(CC)c1ccc(-c2ccc(-c3nc(C#N)c4ccccc4n3)s2)cc1
- absorption maximum (in CC#N): 397 nm
- absorption maximum (in Cc1ccccc1): 402 nm

SMILES: CC(C)(C)c1ccc(-c2nc3ccccc3nc2-c2cc(-c3nc4ccccc4nc3-c3ccc(C(C)(C)C)cc3)cc(-n3c4ccccc4c4ccccc43)c2)cc1
- absorption maximum (in Cc1ccccc1): 344 nm

SMILES: CCOC(=O)C1=CN(c2ccccc2)C=C(C(=O)OCC)C1c1ccccc1
- absorption maximum (in C1CCOC1): 362 nm
- absorption maximum (in CO): 366 nm

SMILES: F[B-]1(F)n2cccc2C(c2ccccc2)=C2C=CC=[N+]21
- absorption maximum (in Cc1ccccc1): 503 nm
- absorption maximum (in ClCCl): 500 nm

SMILES: CCC1=C(C)C2=C(C)c3cccn3[B-](F)(F)[N+]2=C1C
- absorption maximum (in C1CCCCC1): 504 nm
- absorption maximum (in CC(C)=O): 495 nm
- absorption maximum (in CCO): 497 nm
- absorption maximum (in CCOC(C)=O): 496 nm
- absorption maximum (in CO): 495.5 nm
- absorption maximum (in OCC(F)(F)F): 492 nm

SMILES: Cc1ccc2c(c1)NC(=O)CC(=O)N2
- absorption maximum (in CS(C)=O): 294 nm

SMILES: COc1ccccc1NC1=CC(=O)c2ccccc2C1=O
- absorption maximum (in CCCCCC): 468 nm
- absorption maximum (in CO): 476 nm

SMILES: F[B-]1(F)n2c(c(Sc3ccccc3)c3c2-c2ccccc2CC3)C=C2C(Sc3ccccc3)=C3CCc4ccccc4C3=[N+]21
- absorption maximum (in CC#N): 640 nm

SMILES: O=C(O)c1ccc2ccc3cccc4ccc1c2c34
- absorption maximum (in C1CCOC1): 379 nm
- absorption maximum (in CC#N): 379 nm
- absorption maximum (in CCCCCC): 381 nm
- absorption maximum (in CCO): 340 nm
- absorption maximum (in CN(C)C=O): 377 nm
- absorption maximum (in CO): 339 nm
- absorption maximum (in Cc1ccccc1): 382 nm
- absorption maximum (in ClCCl): 382 nm

SMILES: CN(C)c1nc(N)c2nc(C#N)n(Cc3ccccc3)c2n1
- absorption maximum (in C1COCCO1): 339 nm
- absorption maximum (in CC#N): 338 nm
- absorption maximum (in CO): 338 nm
- absorption maximum (in ClCCl): 336 nm

SMILES: CCOC(=O)c1cc(C(=O)OCC)c2ccc(N(C)C)cc2n1
- absorption maximum (in CCO): 430 nm

SMILES: COc1ccc2c(-c3nc(-c4ccccc4)no3)cc(=O)oc2c1
- absorption maximum (in CCO): 344 nm
- absorption maximum (in ClC(Cl)Cl): 345 nm

SMILES: COC(=O)c1ccc(/C=C2\C=C(c3ccc(OC)c(OC)c3)NC2=O)cc1
- absorption maximum (in C1COCCO1): 454 nm

SMILES: CC(=O)O[B-]1(OC(C)=O)OC(/C=C/c2cccc3ccccc23)=CC(/C=C/c2cccc3ccccc23)=[O+]1
- absorption maximum (in C1CCOC1): 464 nm
- absorption maximum (in CC#N): 468 nm
- absorption maximum (in CC(C)=O): 464 nm
- absorption maximum (in CS(C)=O): 478 nm
- absorption maximum (in Cc1ccccc1): 468 nm
- absorption maximum (in ClC(Cl)Cl): 474 nm
- absorption maximum (in ClCCl): 472 nm

SMILES: CSc1sc(C(N)=O)c2nnn(C)c(=O)c12
- absorption maximum (in C1CCOC1): 393 nm
- absorption maximum (in CC#N): 394.5 nm
- absorption maximum (in CCO): 397 nm
- absorption maximum (in CN(C)C=O): 396.5 nm
- absorption maximum (in CO): 397 nm
- absorption maximum (in CS(C)=O): 398.5 nm

SMILES: CCN(CC)c1ccc2cc(/C=C/c3ccc([N+](=O)[O-])cc3)c(=O)oc2c1
- absorption maximum (in CC#N): 459 nm

SMILES: Cc1ccc2c(c1)nnn2-c1c(C#N)c2c(N)ncnc2n1[C@H]1C[C@H](O)[C@@H](CO)O1
- absorption maximum (in CO): 278 nm

SMILES: CC1(C)C(/C=C/c2cc3ccc(O)cc3oc2=O)=[N+](CCCS(=O)(=O)[O-])c2ccccc21
- absorption maximum (in CCO): 623 nm
- absorption maximum (in CS(C)=O): 630 nm
- absorption maximum (in O): 555 nm
